Assay results from patent publication US9902730B2, “Compounds and compositions as toll-like receptor 7 agonists” (NOVARTIS AG, priority 2014, dated 2018).

These compounds were tested against T1, human TLR7 (Homo sapiens, UniProt Q9NYK1) (assay: Reporter gene assay (HEK293 cells with human TLR7 and NF-kB-driven luciferase reporter)). Conditions: HEK 293 cells stably transfected with human TLR7 and NF-kB-driven luciferase reporter; 7 hours incubation; EC50 relative to activity of resiquimod set to 100%.
T1 construct: expressed in transfected cells
T1 sequence (Q9NYK1 27-1049): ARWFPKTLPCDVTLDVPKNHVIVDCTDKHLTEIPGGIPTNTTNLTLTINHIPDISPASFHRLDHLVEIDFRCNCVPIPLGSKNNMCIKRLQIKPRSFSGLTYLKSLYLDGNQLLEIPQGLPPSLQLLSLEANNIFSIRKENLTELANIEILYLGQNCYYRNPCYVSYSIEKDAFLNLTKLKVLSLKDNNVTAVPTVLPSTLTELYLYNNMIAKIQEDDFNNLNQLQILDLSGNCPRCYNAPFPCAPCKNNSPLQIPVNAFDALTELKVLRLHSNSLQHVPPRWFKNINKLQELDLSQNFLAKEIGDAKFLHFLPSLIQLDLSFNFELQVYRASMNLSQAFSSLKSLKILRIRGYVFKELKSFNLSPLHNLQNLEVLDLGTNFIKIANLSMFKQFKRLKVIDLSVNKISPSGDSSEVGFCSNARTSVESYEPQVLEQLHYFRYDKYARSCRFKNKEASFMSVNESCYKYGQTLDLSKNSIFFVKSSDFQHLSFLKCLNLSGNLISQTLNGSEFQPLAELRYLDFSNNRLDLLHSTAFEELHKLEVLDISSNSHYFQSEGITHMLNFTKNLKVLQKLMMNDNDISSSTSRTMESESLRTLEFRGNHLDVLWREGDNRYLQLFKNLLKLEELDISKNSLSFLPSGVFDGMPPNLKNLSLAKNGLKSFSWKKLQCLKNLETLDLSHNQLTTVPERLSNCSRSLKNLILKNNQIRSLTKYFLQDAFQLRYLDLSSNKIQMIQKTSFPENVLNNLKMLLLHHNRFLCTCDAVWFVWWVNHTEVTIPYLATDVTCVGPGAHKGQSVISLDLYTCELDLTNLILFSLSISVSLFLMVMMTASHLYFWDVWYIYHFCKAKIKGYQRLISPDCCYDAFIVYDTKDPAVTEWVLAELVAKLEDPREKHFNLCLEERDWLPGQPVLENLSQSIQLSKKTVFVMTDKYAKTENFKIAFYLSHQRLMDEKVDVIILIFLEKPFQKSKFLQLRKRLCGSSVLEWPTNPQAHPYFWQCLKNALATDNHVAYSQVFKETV
Assay type: cell-based
Procedure: Human embryonic kidney 293 (HEK 293) cells were stably transfected with human TLR7 and an NF-kB-driven luciferase reporter vector (pNifty-Luciferase). As a control assay, normal Hek293 transfected with pNifty-Luc were used. Cells were cultured in DMEM supplemented with 2 mM L-glutamine, 10% heart inactivated FBS, 1% penicillin and streptomycin, 2 μg/ml puromycin (InvivoGen #ant-pr-5) and 5 μg/ml of blasticidin (Invitrogen #46-1120). Bright-Glo™ Luciferase assay buffer and substrate were supplied by Promega #E263B and #E264B (assay substrate and buffer respectively). 384 well clear-bottom plates were supplied by Greiner bio-one (#789163-G) and were custom bar-coded plates.
Cells were plated at 25,000 cells/well in 384-well plates in a final volume of 50 μl of media. Cells were allowed to adhere to the plates after overnight (18 hours) culture at 37° C. and 5% CO2. Serially diluted experimental and positive control compounds were then dispensed to each well and incubated for 7 hours at 37° C. and 5% CO2. Cells stimulated with DMSO alone also serve as negative controls. After the incubation, 30 μl of the pre-mix assay buffer and substrate buffer were added to each well according to manufacturer's instructions. The luminescence signal was read on a CLIPR machine with an integration time of 20 seconds per plate.
Dose response curves are generated for each compound and EC50 values were determined as the concentration that gives 50% of the maximal signal.
Compound `CCCCCNc1nc(N)nc2ccn(Cc3cc(OCc4nnn[nH]4)ccc3OC)c12` [Example 1, 5-(5-((1H-tetrazol-5-yl)methoxy)-2-methoxybenzyl)-N4-pentyl-5H-pyrrolo[3,2-d]pyrimidine-2,4-diamine] has an EC50 of 0.1 µM. For `CCCCCNc1nc(N)nc2ccn(Cc3cc(Cc4nnn[nH]4)ccc3OC)c12` [Example 2, 5-(5-((1H-tetrazol-5-yl)methyl)-2-methoxybenzyl)-N4-pentyl-5H-pyrrolo[3,2-d]pyrimidine-2,4-diamine], the EC50 was 0.05 µM. Work on `CCCCCNc1nc(N)nc2ccn(Cc3cc(Cc4nnn(CC(=O)O)n4)ccc3OC)c12` [Example 3, 2-(5-(3-((2-amino-4-(pentylamino)-5H-pyrrolo[3,2-d]pyrimidin-5-yl)methyl)-4-methoxybenzyl)-2H-tetrazol-2-yl)acetic acid] yielded an EC50 of 0.2 µM. With `CCCCCNc1nc(N)nc2ccn(Cc3cc(CC(=O)O)ccc3OC)c12` [Example 4, 2-(3-((2-amino-4-(pentylamino)-5H-pyrrolo[3,2-d]pyrimidin-5-yl)methyl)-4-methoxyphenyl)acetic acid] the EC50 was 0.05 µM. Work on `CCCC[C@@H](CO)Nc1nc(N)nc2ccn(Cc3cc(CC(=O)O)ccc3OC)c12` [Example 5, (S)-2-(3-((2-amino-4-((1-hydroxyhexan-2-yl)amino)-5H-pyrrolo[3,2-d]pyrimidin-5-yl)methyl)-4-methoxyphenyl)acetic acid] yielded an EC50 of 0.4 µM. With `CCCC[C@@H](CO)Nc1nc(N)nc2ccn(Cc3cc(Cc4nnn[nH]4)ccc3OC)c12` [Example 6, (S)-2-((5-(5-((1H-tetrazol-5-yl)methyl)-2-methoxybenzyl)-2-amino-5H-pyrrolo[3,2-d]pyrimidin-4-yl)amino)hexan-1-ol] the EC50 was 0.1 µM. Work on `CCC[C@@H](CO)Nc1nc(N)nc2ccn(Cc3cc(Cc4nnn[nH]4)ccc3OC)c12` [Example 7, (S)-2-((5-(5-((1H-tetrazol-5-yl)methyl)-2-methoxybenzyl)-2-amino-5H-pyrrolo[3,2-d]pyrimidin-4-yl)amino)pentan-1-ol] yielded an EC50 of 0.8 µM. Compound `CCCCCNc1nc(N)nc2ccn(Cc3cc(-c4nnn[nH]4)ccc3OC)c12` [Example 8, 5-(2-methoxy-5-(1H-tetrazol-5-yl)benzyl)-N4-pentyl-5H-pyrrolo[3,2-d]pyrimidine-2,4-diamine] has an EC50 of 0.3 µM. For `CCCCCCNc1nc(N)nc2ccn(Cc3cc(-c4nnn[nH]4)ccc3OC)c12` [Example 9, N4-hexyl-5-(2-methoxy-5-(1H-tetrazol-5-yl)benzyl)-5H-pyrrolo[3,2-d]pyrimidine-2,4-diamine], the EC50 was 0.8 µM. In the case of `CCCC[C@@H](CO)Nc1nc(N)nc2ccn(Cc3cc(-c4nnn[nH]4)ccc3OC)c12` [Example 10, (S)-2-((2-amino-5-(2-methoxy-5-(1H-tetrazol-5-yl)benzyl)-5H-pyrrolo[3,2-d]pyrimidin-4-yl)amino)hexan-1-ol], the EC50 is reported as 0.2 µM. `CCCCCNc1nc(N)nc2ccn(Cc3cc(C(C)(C)c4nnn[nH]4)ccc3OC)c12` [Example 11, 5-(5-(2-(1H-tetrazol-5-yl)propan-2-yl)-2-methoxybenzyl)-N4-pentyl-5H-pyrrolo[3,2-d]pyrimidine-2,4-diamine] showed an EC50 of 0.1 µM. With `CCCC[C@@H](CO)Nc1nc(N)nc2ccn(Cc3cc(C(C)(C)c4nnn[nH]4)ccc3OC)c12` [Example 12, (S)-2-((5-(5-(2-(1H-tetrazol-5-yl)propan-2-yl)-2-methoxybenzyl)-2-amino-5H-pyrrolo[3,2-d]pyrimidin-4-yl)amino)hexan-1-ol] the EC50 was 0.2 µM. `CCCCCNc1nc(N)nc2ccn(Cc3cc(C(=O)O)ccc3OC)c12` [Example 13, 3-((2-amino-4-(pentylamino)-5H-pyrrolo[3,2-d]pyrimidin-5-yl)methyl)-4-methoxybenzoic acid] showed an EC50 of 0.1 µM. For `CCCCCNc1nc(N)nc2ccn(Cc3ccc(-c4nnn[nH]4)cc3OC)c12` [Example 14, 5-(2-methoxy-4-(1H-tetrazol-5-yl)benzyl)-N4-pentyl-5H-pyrrolo[3,2-d]pyrimidine-2,4-diamine], the EC50 was 1.4 µM. `CCCCCNc1nc(N)nc2ccn(Cc3cc(CCc4nnn[nH]4)ccc3OC)c12` [Example 15, 5-(5-(2-(1H-tetrazol-5-yl)ethyl)-2-methoxybenzyl)-N4-pentyl-5H-pyrrolo[3,2-d]pyrimidine-2,4-diamine] gave an EC50 of 0.06 µM. In the case of `CCCCCNc1nc(N)nc2ccn(Cc3cc(C(F)(F)c4nnn[nH]4)ccc3OC)c12` [Example 16, 5-(5-(difluoro(1H-tetrazol-5-yl)methyl)-2-methoxybenzyl)-N4-pentyl-5H-pyrrolo[3,2-d]pyrimidine-2,4-diamine], the EC50 is reported as 0.2 µM. `CCCCCNc1nc(N)nc2ccn(Cc3cc(C(F)(F)C(=O)O)ccc3OC)c12` [Example 17, 2-(3-((2-amino-4-(pentylamino)-5H-pyrrolo[3,2-d]pyrimidin-5-yl)methyl)-4-methoxyphenyl)-2,2-difluoroacetic acid] was tested, and the EC50 was 0.5 µM. `CCCCCNc1nc(N)nc2ccn(Cc3cc(CC[C@@H](O)C[C@@H](O)CC(=O)O)ccc3OC)c12` [Example 18, (3R,5R)-7-(3-((2-amino-4-(pentylamino)-5H-pyrrolo[3,2-d]pyrimidin-5-yl)methyl)-4-methoxyphenyl)-3,5-dihydroxyheptanoic acid] was tested, and the EC50 was 0.6 µM. In the case of `CCCCCNc1nc(N)nc2ccn(Cc3cc(P(=O)(O)O)ccc3OC)c12` [Example 19, (3-((2-amino-4-(pentylamino)-5H-pyrrolo[3,2-d]pyrimidin-5-yl)methyl)-4-methoxyphenyl)phosphonic acid], the EC50 is reported as 0.08 µM. With `CCCCCNc1nc(N)nc2ccn(Cc3cc(P(=O)(O)OC)ccc3OC)c12` [Example 20, methyl hydrogen (3-((2-amino-4-(pentylamino)-5H-pyrrolo[3,2-d]pyrimidin-5-yl)methyl)-4-methoxyphenyl)phosphonate] the EC50 was 0.3 µM. Compound `CCCCCNc1nc(N)nc2ccn(Cc3cc(CCC(=O)O)ccc3OC)c12` [Example 21, 3-(3-((2-amino-4-(pentylamino)-5H-pyrrolo[3,2-d]pyrimidin-5-yl)methyl)-4-methoxyphenyl)propanoic acid] has an EC50 of 0.4 µM. Work on `CCCCCNc1nc(N)nc2ccn(Cc3cc(/C=C/C(=O)O)ccc3OC)c12` [Example 22, (E)-3-(3-((2-amino-4-(pentylamino)-5H-pyrrolo[3,2-d]pyrimidin-5-yl)methyl)-4-methoxyphenyl)acrylic acid] yielded an EC50 of 0.7 µM. `CCCC[C@@H](CO)Nc1nc(N)nc2ccn(Cc3cc(CCC(=O)O)ccc3OC)c12` [Example 23, (S)-3-(3-((2-amino-4-((1-hydroxyhexan-2-yl)amino)-5H-pyrrolo[3,2-d]pyrimidin-5-yl)methyl)-4-methoxyphenyl)propanoic acid] showed an EC50 of 0.4 µM. `CCCCCNc1nc(N)nc2ccn(Cc3cc(CN4CCC[C@@H]4C(=O)O)ccc3OC)c12` [Example 24, (R)-1-(3-((2-amino-4-(pentylamino)-5H-pyrrolo[3,2-d]pyrimidin-5-yl)methyl)-4-methoxybenzyl)pyrrolidine-2-carboxylic acid] gave an EC50 of 0.08 µM. `CCCCCNc1nc(N)nc2ccn(Cc3ccc(CN4CCC[C@H]4C(=O)O)cc3OC)c12` [Example 25, (S)-1-(4-((2-amino-4-(pentylamino)-5H-pyrrolo[3,2-d]pyrimidin-5-yl)methyl)-3-methoxybenzyl)pyrrolidine-2-carboxylic acid] showed an EC50 of 0.008 µM. Work on `CCCCCNc1nc(N)nc2ccn(Cc3ccc(OCC(=O)O)cc3OC)c12` [Example 26, 2-(4-((2-amino-4-(pentylamino)-5H-pyrrolo[3,2-d]pyrimidin-5-yl)methyl)-3-methoxyphenoxy)acetic acid] yielded an EC50 of 0.4 µM.
